IC50 data for 21 compounds are collected here from US20240336611A1 (Insilico Medicine IP Limited, priority 2021, published 2024).

As a reminder, the IC50 is the concentration that inhibits the measured activity by half.

T1 sequence (Q9UKE5 1-367): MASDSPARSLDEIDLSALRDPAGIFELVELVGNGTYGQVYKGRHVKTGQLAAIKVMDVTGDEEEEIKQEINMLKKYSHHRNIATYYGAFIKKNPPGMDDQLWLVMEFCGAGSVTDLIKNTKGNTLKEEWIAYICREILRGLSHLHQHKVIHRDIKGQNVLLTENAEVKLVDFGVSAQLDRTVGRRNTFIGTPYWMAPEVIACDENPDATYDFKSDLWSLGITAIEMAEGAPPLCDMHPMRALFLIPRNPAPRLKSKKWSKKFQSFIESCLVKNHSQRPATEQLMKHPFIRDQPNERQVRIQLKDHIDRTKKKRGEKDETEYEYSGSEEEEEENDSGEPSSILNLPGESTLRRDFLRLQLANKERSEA

This assay has as its target T1, TNIK kinase [amino acid sequence (1-367), Invitrogen] (Homo sapiens, UniProt Q9UKE5).
T1 construct: purchased Invitrogen
As to the kind of experiment: TNIK kinase inhibition assay (Z-lyte FRET-peptide). Format: biochemical. The note with it: 0.625 nM TNIK kinase, 2 μM Ser/Thr 7 peptide, 64 μM ATP, one hour at room temperature. The procedure: Z-lyte assay kit was purchased from Invitrogen. A site-specific protease recognizes and cleaves non-phosphorylated FRET-peptides. Phosphorylation of FRET-peptides suppresses cleavage by protease and will maintain FRET from donor to acceptor.
5 μl of Development Reagent A solution was then added to cleave non-phosphorylated peptide with a dilution 1:65000 in Development Buffer B. The assay plate was incubated at room temperature for another one hour and then read in the Envision plate reader (PerkinElmer).
`CC(C)n1cnc(-c2ccc(F)cc2)c1-c1nc(C(=O)Nc2ncc(N3CCN(C)CC3)cn2)cs1` [Compound 46, 2-(4-(4-fluorophenyl)-1-isopropyl-1H-imidazol-5-yl)-N-(5-(4-methylpiperazin-1-yl)pyrimidin-2-yl)thiazole-4-carboxamide] showed an IC50 of over 150 nM.
To `[2H]C([2H])([2H])N1CC(c2ccc(NC(=O)c3csc(-c4c(-c5ccc(F)cc5)ncn4C([2H])(C)C)n3)nc2)C1` [Compound 110, 2-[3-(1-deuterio-1-methyl-ethyl)-5-(4-fluorophenyl)imidazol-4-yl]-N-[5-[1-(trideuteriomethyl)azetidin-3-yl]-2-pyridyl]thiazole-4-carboxamide] belongs 1 to 12 nM; to `CN1C2CC1CN(c1ccc(NC(=O)c3coc(-c4c(-c5ccc(F)cc5)ncn4C4CC(F)(F)C4)n3)c(F)c1)C2` [Compound 103, 2-(1-(3,3-difluorocyclobutyl)-4-(4-fluorophenyl)-1H-imidazol-5-yl)-N-(2-fluoro-4-(6-methyl-3,6-diazabicyclo[3.1.1]heptan-3-yl)phenyl)oxazole-4-carboxamide], 1 to 12 nM.
Consider `[2H]C([2H])([2H])N1CC(c2ccc(NC(=O)c3csc(-c4c(C(C)C)cnn4-c4ccc(F)cc4)n3)nc2)C1` [Compound 116, 2-(1-(4-fluorophenyl)-4-isopropyl-1H-pyrazol-5-yl)-N-(5-(1-(trideuteriomethyl)azetidin-3-yl)pyridin-2-yl)thiazole-4-carboxamide], for which the IC50 was 1 to 12 nM.
`CC(C)n1cnc(-c2ccc(F)cc2)c1-c1nc(C(=O)Nc2ccc(C3C[C@H]4CC[C@@H](C3)N4C)cn2)cs1` (stereo partly drawn) [Compound 60, 2-(4-(4-fluorophenyl)-1-isopropyl-1H-imidazol-5-yl)-N-(5-((1R,5S)-8-methyl-8-azabicyclo[3.2.1]octan-3-yl)pyridin-2-yl)thiazole-4-carboxamide] returned an IC50 of 1 to 12 nM.
To `CC(C)n1cnc(-c2ccc(F)cc2)c1-c1csc(C(=O)Nc2ccc(N3C[C@H]4CC[C@@H](C3)N4C)cn2)n1` [Compound 38, 4-(4-(4-fluorophenyl)-1-isopropyl-1H-imidazol-5-yl)-N-(5-((1R,5S)-8-methyl-3,8-diazabicyclo[3.2.1]octan-3-yl)pyridin-2-yl)thiazole-2-carboxamide] belongs 1 to 12 nM; to `[2H]C([2H])([2H])N1CC(c2ccc(NC(=O)c3c[nH]c(-c4c(-c5ccc(F)cc5)ncn4C4CCC4)n3)nc2)C1` [Compound 119, 2-[3-cyclobutyl-5-(4-fluorophenyl)imidazol-4-yl]-N-[5-[1-(trideuteriomethyl)azetidin-3-yl]-2-pyridyl]-1H-imidazole-4-carboxamide], 12 to 150 nM.
For `CN1CCN(c2ccc(NC(=O)c3c[nH]c(-c4c(-c5ccc(F)cc5)ncn4C4CC4)n3)cc2)CC1` [Compound 15, 3′-cyclopropyl-5′-(4-fluorophenyl)-N-(4-(4-methylpiperazin-1-yl)phenyl)-1H,3′H-[2,4′-biimidazole]-4-carboxamide] the value was 12 to 150 nM; for `CC(C)n1cnc(-c2ccc(F)cc2)c1-c1cnc(C(=O)Nc2ccc(N3CCN(C)CC3)cc2)s1` [Compound 1, 5-(4-(4-fluorophenyl)-1-isopropyl-1H-imidazol-5-yl)-N-(4-(4-methylpiperazin-1-yl)phenyl)thiazole-2-carboxamide], over 150 nM.
For `CC(C)n1cnc(-c2ccc(F)cc2)c1-c1coc(C(=O)Nc2ccc(N3CC4CCC(C3)N4C)cn2)n1` [Compound 39, 4-(4-(4-fluorophenyl)-1-isopropyl-1H-imidazol-5-yl)-N-(5-(8-methyl-3,8-diazabicyclo[3.2.1]octan-3-yl)pyridin-2-yl)oxazole-2-carboxamide] the value was 12 to 150 nM; for `[2H]C([2H])([2H])N1CC(c2ccc(NC(=O)c3c[nH]c(-c4c(-c5ccc(F)cc5)ncn4C(C)C)n3)nc2)C1` [Compound 113], 12 to 150 nM.
Consider `O=C(Nc1ccc(N2CCC2)cn1)c1csc(-c2c(-c3ccc(F)cc3)ncn2C2COC2)n1` [Compound 75, N-(5-(azetidin-1-yl)pyridin-2-yl)-2-(4-(4-fluorophenyl)-1-(oxetan-3-yl)-1H-imidazol-5-yl)thiazole-4-carboxamide], for which the IC50 lay within 1 to 12 nM.
For `CN1C2CC1CN(c1ccc(NC(=O)c3c[nH]c(-c4c(-c5ccc(F)cc5)ncn4C4CCC4)n3)nc1)C2` [Compound 50, 3′-cyclobutyl-5′-(4-fluorophenyl)-N-(5-(6-methyl-3,6-diazabicyclo[3.1.1]heptan-3-yl)pyridin-2-yl)-1H,3′H-[2,4′-biimidazole]-4-carboxamide] the value was 1 to 12 nM.
For `[2H]C([2H])([2H])N1CC(c2ccc(NC(=O)c3c[nH]c(-c4c(-c5ccc(F)cc5)ncn4C([2H])(C)C)n3)nc2)C1` [Compound 118] the value was 12 to 150 nM.
For `CC(C)n1cnc(-c2ccc(F)cc2)c1-c1nc(C(=O)Nc2ccc(N3CCN(C)CC3)c(F)c2F)c[nH]1` [Compound 17, N-(2,3-difluoro-4-(4-methylpiperazin-1-yl)phenyl)-5′-(4-fluorophenyl)-3′-isopropyl-1H,3′H-[2,4′-biimidazole]-4-carboxamide] the value was 1 to 12 nM; for `CC(C)n1cnc(-c2ccc(F)cc2)c1-c1nc(C(=O)Nc2ccc(N3CCN(C)CC3)c(F)c2)c[nH]1` [Compound 16, N-(3-fluoro-4-(4-methylpiperazin-1-yl)phenyl)-5′-(4-fluorophenyl)-3′-isopropyl-1H,3′H-[2,4′-biimidazole]-4-carboxamide], 1 to 12 nM; for `O=C(Nc1ccc(N2CCC2)cn1)c1coc(-c2c(-c3ccc(F)cc3)ncn2C2CC(F)(F)C2)n1` [Compound 69, N-(5-(azetidin-1-yl)pyridin-2-yl)-2-(1-(3,3-difluorocyclobutyl)-4-(4-fluorophenyl)-1H-imidazol-5-yl)oxazole-4-carboxamide], over 150 nM.
For `CC(C)c1noc(-c2ccc(F)cc2)c1-c1nc(C(=O)Nc2ccc(C3CN(C)C3)cn2)cs1` [Compound 89, 2-(5-(4-fluorophenyl)-3-isopropylisoxazol-4-yl)-N-(5-(1-methylazetidin-3-yl)pyridin-2-yl)thiazole-4-carboxamide], the concentration for half-maximal inhibition (IC50) lay in the range of 12 to 150 nM.
To `CN1[C@@H]2CC[C@H]1CN(c1ccc(NC(=O)c3c[nH]c(-c4c(-c5ccc(F)cc5)ncn4C4CCC4)n3)nc1)C2` [Compound 48, 3′-cyclobutyl-5′-(4-fluorophenyl)-N-(5-((1R,5S)-8-methyl-3,8-diazabicyclo[3.2.1]octan-3-yl)pyridin-2-yl)-1H,3′H-[2,4′-biimidazole]-4-carboxamide] belongs 1 to 12 nM.
To `O=C(Nc1ccc(N2CCC2)cn1)c1c[nH]c(-c2c(-c3ccc(F)cc3)ncn2C2CC(F)(F)C2)n1` [Compound 73, N-(5-(azetidin-1-yl)pyridin-2-yl)-3′-(3,3-difluorocyclobutyl)-5′-(4-fluorophenyl)-1H,3′H-[2,4′-biimidazole]-4-carboxamide] belongs 12 to 150 nM; to `CC(C)n1cnc(-c2ccc(F)cc2)c1-c1ncc(C(=O)Nc2ccc(N3CC4(CN(C)C4)C3)cc2)[nH]1` [Compound 20, 5′-(4-fluorophenyl)-3′-isopropyl-N-(4-(6-methyl-2,6-diazaspiro[3.3]heptan-2-yl)phenyl)-1H,3′H-[2,4′-biimidazole]-5-carboxamide], 1 to 12 nM.
